Measured values: US9161944B2, “Method for preventing cancer metastasis” (INSERM (INSTITUT NATIONAL DE LA SANTE ET DE LA SANTE ET DE …, priority 2010, dated 2015)
Read-outs that look alike come from different tables or passages of the source.

Legend:
SK3/KCa2.3 channel = SK3/KCa2.3 channel (Homo sapiens, UniProt Q9UGI6); assay: Whole-cell patch clamp on HEK293 cells expressing SK3; format: cell-based; parameters: expressed in transfected cells; host or cells: HEK293, lentiviral transduction, clonal selection; settings: for Conductance decreasing / Inhibition of I at 0 mV: HEK 293 LvSK3 cells; for Inhibition of I at 0 mV: 10 μM stated for JPH1701; for Effect on SK3 activity: less effect than JPH1701
Method: The percentages of inhibition represent the ratio (SK3 current amplitude and chord conductance (in the presence of 10 μM JPH1701)/SK3 current amplitude in control experiments). Black bars show current at 0 mV and grey bars indicate the chord conductance. […] Columns, mean, bars, SEM, (5 cells for racemic mix and 4 cells for + and − forms).
MDA-MB-435s and HEK293 cells were transduced with lentiviral vector at multiplicities of infection (MOI) of 1 to 3 in the presence of polybrene (4 μg/ml, Sigma).
Experiments were performed with cells seeded into 35-mm Petri dishes at 3000 cells per cm2. All experiments were performed using the conventional whole-cell recording configuration of the patch-clamp technique as previously described. PCa solution was 7 and 6.4 respectively for MDA-MB-435s and HEK293-SK3/KCa2.3 cells.
Briefly, experiments were conducted using Axopatch 200B patch-clamp amplifier (Axon Instrument) and data, digitized with 1322-A Digidata converter (Axon Instrument), were stored on a computer using Clampex of pClamp 9.2 software (Axon Instru-ment). The patch-clamp data was analyzed using both Clampfit 9.2 and Origin 7.0 software (Microcal Inc., Northampton, Mass., USA).
The pipette solution for the whole-cell recordings contained (in mM): K-glutamate 125, KCl 20, MgCl2 1, Mg-ATP 1, HEPES 10, and pH was adjusted to 7.2 with KOH and various concentrations of CaCl2 and EGTA were added to obtain calculated pCa=7 (0.37 mM CaCl2 and 10 mM EGTA) or pCa=6.4 (0.7 mM CaCl2 and 1 mM EGTA).
We next developed HEK cells expressing SK3/KCa2.3 channel in order to test directly analogues on SK3 activity measured using patch-clamp technique (FIG. 8). […] The JPH1701-induced inhibition of SK3 current was analysed at 0 mV and the entire time course of the experiment is depicted in FIG. 8A.
Current activity has been measured in HEK 293 LvSK3 and in MDA-MB-435s cells. The percentages represent the inhibition of current and of conductance by compounds on SK3 channel in HEK 293 cells.

MDA-MB-435s (SK3+) = assay: Cell migration / 2D motility assay (transwell inserts, wound healing); format: cell-based, human; settings: for Effect on cell migration: summary of table 2
Source text: Alternatively, the cell migration inhibitory activity of a compound of formula (I) may be assessed by performing a Wound Healing assay that is disclosed in the examples herein and for which the one skilled in the art may also refer to the article of Rodriguez et al. (2005, Methods Biol Mol, Vol. 294: 23-29). The wound-healing assay is simple, inexpensive, and one of the earliest developed methods to study directional cell migration in vitro. This method mimics cell migration during wound healing in vivo. The basic steps involve creating a “wound” in a cell monolayer, capturing the images at the beginning and at regular intervals during cell migration to close the wound, and comparing the images to quantify the migration rate of the cells. It is particularly suitable for studies on the effects of cell-matrix and cell-cell interactions on cell migration. Cells are seeded in culture dishes and grown until confluence in DMEM supplemented with 10% foetal calf serum. The monolayer is then scratched with a sterile yellow pipette tip. Then, migration of cells to the cleared area is inspected under a microscope. Pictures are taken directly at the time of scratching and after 24 h, so as to determine the ability of the tested cells to migrate.
Wound healing assay: Cells were seeded in culture dishes and grown until confluence in DMEM supplemented with 10% foetal calf serum. The monolayer was scratched with a sterile yellow pipette tip. The migration of cells to the cleared area was inspected under a microscope. Pictures were taken directly at the time of scratching and after 24 h.
At least three independent experiments were each performed in triplicate.

PAF receptor [1] = target: T1, PAF receptor (Homo sapiens, UniProt P25105); assay: PAF receptor agonist response (increase of intracellular calcium); format: cell-based; settings: 0.3 and 2 μM, FIG. 11B
Method: (§1) FIG. 11: Effects of JPH1701 on PAF receptor, PLC and PKCs activities. FIG. 11A) Histogram showing the percentage of control specific binding of 3H-C16-PAF to recombinant PAF receptor obtained from membrane homogenates of CHO cells by 0.3 and 2 μM edelfosine and by 0.3 and 2 μM JPH1701. FIG. 11B) Histogram showing the percentage of control agonist response (% effect i.e: increase of intracellular calcium concentration) of 0.3 and 2 μM edelfosine and JPH1701 on PAF receptor normalized to the response induced by 100 nM C16-PAF. […] FIG. 11C-D) Dose responses curves showing the effect of JPH1701 on PKCs (FIG. 11C, PKCs are: alpha, Beta 1, Beta 2, Gamma, Delta, Epsilon, Zeta, Eta, Theta, Iota) and PhosphoLipase C (PLC) activities (FIG. 11D).

MDA-MB-435s [2] = assay: Cytotoxicity / cell viability (MTT, tetrazolium salt reduction)
[3] = as above; settings: human
PAF receptor [4] = target: T1, PAF receptor; assay: 3H-C16-PAF binding, membrane homogenates of CHO cells; parameters: expressed in transfected cells; host or cells: CHO cells (membrane homogenates); settings: 0.3 and 2 μM, FIG. 11A
Method: as §1

PhosphoLipase C (PLC) = assay: PhosphoLipase C activity; format: biochemical; settings: FIG. 11D
Method: as §1

MDA-MB-435s [5] = tested on: MDA-MB-435s
[6] = Homo sapiens, MDA-MB-435S, Table 2, concentration 300 nM
[7] = Table 2, viability of MDA-MB-435s

T1 sequence (P25105 whole entry): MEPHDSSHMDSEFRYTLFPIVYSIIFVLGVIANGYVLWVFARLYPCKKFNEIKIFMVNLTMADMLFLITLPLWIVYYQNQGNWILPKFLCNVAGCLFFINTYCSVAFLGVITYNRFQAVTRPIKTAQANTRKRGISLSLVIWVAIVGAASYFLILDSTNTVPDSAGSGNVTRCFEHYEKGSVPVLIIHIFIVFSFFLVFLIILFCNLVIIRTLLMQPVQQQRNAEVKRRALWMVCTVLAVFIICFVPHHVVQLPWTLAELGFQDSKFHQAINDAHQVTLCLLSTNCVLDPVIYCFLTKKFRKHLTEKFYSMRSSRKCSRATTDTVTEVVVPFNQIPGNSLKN

CCCCCCCCCCCCCCCCOCC(COP(=O)(O)OC1OC(COC(C)=O)C(OC2OC(COC(C)=O)C(OC(C)=O)C(OC(C)=O)C2OC(C)=O)C(OC(C)=O)C1OC(C)=O)OC.CCN(CC)CC (mixture of isomers) [CHS31]
Conductance decreasing (SK3/KCa2.3 channel): 38.9 ± 5.5% | Inhibition of I at 0 mV (SK3/KCa2.3 channel): 42.5 ± 8.2% | Effect on SK3 activity (SK3/KCa2.3 channel): reduced SK3 activity

CCCCCCCCCCCCCCCCCCOCC(COP(=O)([O-])OCC[N+](C)(C)C)OC (centres unmarked) [Edelfosine, reference compound]
inhibition at 0.01 µM (MDA-MB-435s (SK3+); Homo sapiens, MDA-MB-435S, Table 2, concentration 10 nM): 60% | inhibition at 0.3 µM (MDA-MB-435s (SK3+); [6]): 80% | PAF receptor agonist response (PAF receptor [1]): dose-dependently increase intracellular calcium | IC50 (MDA-MB-435s [2]; Homo sapiens, MDA-MB-435S): ~5 µM | Toxicity (MDA-MB-435s [2]; [7]): Yes at 10 μM | IC50 at 24 h ([3]; MDA-MB-435s cells (metastatic cancer cell line)): < 5 µM | Interaction with C16-PAF binding site of PAF receptor (PAF receptor [4]): able to interact | IC50 (PhosphoLipase C (PLC)): 2500 nM

CCCCCCCCCCCCCCCCOCC(O)CO (centres unmarked) [GS 1361]
Migration (% of inhibition) (MDA-MB-435s (SK3+); Table 2, concentration 300 nM): 40% | Toxicity (MDA-MB-435s [5]): No at 10 μM

CCCCCOCC(O)CO[C@@H]1O[C@H](COC(C)=O)[C@@H](OC(C)=O)[C@H](OC(C)=O)[C@H]1OC(C)=O (some centres unmarked) [HCG450]
IC50 (MDA-MB-435s [2]; [7]): ~30 µM | Toxicity (MDA-MB-435s [5]): Yes at 10 μM

CCCCCOCC(O)CO[C@@H]1O[C@H](CO)[C@@H](O)[C@H](O)[C@H]1O (some centres unmarked) [HCG451]
Migration (% of inhibition) (MDA-MB-435s (SK3+); Table 2, concentration 300 nM): No effect | Effect on cell migration (MDA-MB-435s (SK3+)): ineffective in cell migration | Toxicity (MDA-MB-435s [5]): No until 100 μM

CCCCCCCCCCCCCCCCOC[C@H](CO[C@@H]1O[C@H](COC(C)=O)[C@@H](O[C@@H]2O[C@H](COC(C)=O)[C@H](OC(C)=O)[C@H](OC(C)=O)[C@H]2OC(C)=O)[C@H](OC(C)=O)[C@H]1OC(C)=O)OC [JPH1700]
Conductance decreasing (SK3/KCa2.3 channel): 18.1 ± 2.3% | Inhibition of I at 0 mV (SK3/KCa2.3 channel): 22.8 ± 2.1% | Effect on SK3 activity (SK3/KCa2.3 channel): reduced SK3 activity

CCCCCCCCCCCCCCCCOC[C@H](CO[C@@H]1O[C@H](CO[C@H]2O[C@H](COC(C)=O)[C@H](OC(C)=O)[C@H](OC(C)=O)[C@H]2OC(C)=O)[C@@H](OC(C)=O)[C@H](OC(C)=O)[C@H]1OC(C)=O)OC [JPH1874]
Conductance decreasing (SK3/KCa2.3 channel): 34.1 ± 6.8% | Inhibition of I at 0 mV (SK3/KCa2.3 channel): 44.0 ± 5.5%

CCCCCCCCCCCCCCCCOC[C@H](CO[C@@H]1O[C@H](COC(C)=O)[C@@H](O[C@H]2O[C@H](COC(C)=O)[C@@H](OC(C)=O)[C@H](OC(C)=O)[C@H]2OC(C)=O)[C@H](OC(C)=O)[C@H]1OC(C)=O)OC [JPH1880]
Conductance decreasing (SK3/KCa2.3 channel): 46.1 ± 6.1% | Inhibition of I at 0 mV (SK3/KCa2.3 channel): 44.7 ± 5.0%

CCCCCCCCCCCCCCCCOCC(COP(=O)(O)OCC[N+](C)(C)C)OC (centres unmarked) [JPH 1321]
inhibition at 0.1 µM (MDA-MB-435s (SK3+); Homo sapiens, MDA-MB-435S, Table 1, concentration 100 nM, read-out: Cell Migration inhibition of MDA-MB-435s (SK3+), Inhibitory effect): 50% | IC50 at 24 h ([3]; MDA-MB-435s cells): ~30 µM

CCCCCCCCCCCCCCCCOCC(CO[C@@H]1O[C@H](COC(C)=O)[C@H](OC(C)=O)[C@H](OC(C)=O)[C@H]1OC(C)=O)OC (some centres unmarked) [JPH 1519]
Migration (% of inhibition) (MDA-MB-435s (SK3+); Table 2, concentration 100 nM): 20%

CCCCCCCCCCCCCCCCOCC(CO[C@@H]1O[C@H](CO)[C@H](O)[C@H](O)[C@H]1O)OC (some centres unmarked) [JPH 1524]
Migration (% of inhibition) (MDA-MB-435s (SK3+); Table 2, concentration 300 nM): 20% | IC50 (MDA-MB-435s [2]; [7]): ~10 µM | Toxicity (MDA-MB-435s [5]): Yes at 10 μM

CCCCCCCCCCCCCCCCOCC(CO)OC (centres unmarked) [JPH 1597]
Migration (% of inhibition) (MDA-MB-435s (SK3+); Table 2, concentration 300 nM): No effect | Effect on cell migration (MDA-MB-435s (SK3+)): decrease its inhibitory effect on cell migration | IC50 (MDA-MB-435s [2]; [7]): ~50 µM | Toxicity (MDA-MB-435s [5]): No at 10 μM

CCCCCCCCCCCCCCCCCCOCC(CO[C@@H]1O[C@H](CO)[C@@H](O[C@@H]2O[C@H](CO)[C@H](O)[C@H](O)[C@H]2O)[C@H](O)[C@H]1O)OC (some centres unmarked) [JPH 1731]
Migration (% of inhibition) (MDA-MB-435s (SK3+); Table 2, concentration 100 nM): 30%

CCCCCCCCCCCCCCCCOP(=O)([O-])OCC[N+](C)(C)C [Miltefosine, reference compound]
inhibition at 0.3 µM (MDA-MB-435s (SK3+); [6]): 20% | Effect on cell migration (MDA-MB-435s (SK3+)): ineffective on cell migration | IC50 (MDA-MB-435s [2]; Homo sapiens, MDA-MB-435S): ~10 µM

CCCCCCCCCCCCCCCCOCC(COP(=O)([O-])OCC[N+](C)(C)C)OC(C)=O (centres unmarked) [PAF, reference compound]
Migration (% of inhibition) (MDA-MB-435s (SK3+); Table 2, concentration 300 nM): No effect | Effect on cell migration (MDA-MB-435s (SK3+)): no effect on cell migration | Toxicity (MDA-MB-435s [2]; [7]): No until 100 μM

CCCCCCCCCCCCCCCCCCOP(=O)([O-])OCC[N+](C)(C)C [SK55]
Effect on cell migration (MDA-MB-435s (SK3+)): ineffective on cell migration | IC50 (MDA-MB-435s [2]; [7]): ~20 µM
